Literature values in patent US20190231770A1, “COMBINATION COMPOSITIONS COMPRISING FXR AGONISTS FOR TREATING OR PREVENTING A FIBROTIC, CIRRHOTIC DISEASE OR DISORDER” (Novartis AG, priority 2016, published 2019).

Tests used:
[1] = patients with chronic liver diseases
[2] = tested on: caspases 1, 2, 3, 6, 7, 8 and 9
[3] = pre-clinical models of NASH and cold ischemia and reperfusion injury; clinical trials in NASH/NAFLD, portal hypertension and cirrhosis
[4] = long term administration

| SMILES | serum aspartate aminotransferase (AST) and alanine aminotransferase (ALT) levels [1] | inhibition of caspases 1, 2, 3, 6, 7, 8 and 9 [2] | efficacy [3] | LDL cholesterol [4] | pruritus [4] |
| --- | --- | --- | --- | --- | --- |
| C[C@H](NC(=O)C(=O)Nc1ccccc1C(C)(C)C)C(=O)N[C@@H](CC(=O)O)C(=O)COc1c(F)c(F)cc(F)c1F [emricasan, 3-[2-[(2-tert-butyl-phenylaminooxalyl)-amino]-propionylamino]-4-oxo-5-(2,3,5,6-tetrafluoro-phenoxy)-pentanoic acid] | lower | inhibits | demonstrated efficacy |  |  |
| CC[C@H]1[C@@H](O)[C@@H]2[C@H](CC[C@]3(C)[C@@H]([C@H](C)CCC(=O)O)CC[C@@H]23)[C@@]2(C)CC[C@@H](O)C[C@@H]12 [obeticholic acid, Obeticholic acid] |  |  |  | increased LDL cholesterol | associated with pruritus |
